Measured values reported in paper PMC9190144, “Phytochemistry, anti-diabetic and antioxidant potentials of Allium consanguineum Kunth” (BMC Complementary Medicine and Therapies, 2022).
Values joined by “and” are separate entries in the source; they are usually repeats but may differ in a detail not shown here. Identical values can stand only once.

Columns and labels:
α-glucosidase = α-glucosidase (Saccharomyces cerevisiae, UniProt P53341); type: biochemical
Method: For the example planning initial 1200 μL of phosphate buffer put in test tube and included 100 μl of each concentrate which sequential weakened going from 9, 7, and 5 mg/ml. 200 μl of glycosidase (0.5 mg/11 ml refined H2O) was added to the test tube in addition to 0.2 ml of substrate arrangement (glucopyranoside 15 mg/10 ml refined water) was kept at 37 °C for 20 minutes.
For control, 1.2 ml of PO4 (phosphate buffer) was added to the test tube and furthermore included 200 μl catalyst arrangement and 200 μl of substrate arrangement (C7H14O6 (glucopyranoside) 15 mg/10 ml refined water) just as included 800 μl of Na2CO3 arrangement and was maintained for 20 minutes at 37 °C [32]. The retention of control and test was examined at 4.05e-7 m using the accompanying equation after the recommended time: %Inhibition=absorbanceofControl-absorbanceofSample/absorbanceofControl×100
(§1) The IC50s were determined using the same approach in free radical assays such as DPPH, ABTS, and H2O2.

α-amylase = experiment: In-vitro α-amylase inhibition assay; type: biochemical; conditions: for Percent Inhibition (mean ± SEM): crude extract/solvent fractions series; for Alpha amylase Percent Inhibition (mean ± SEM): semi-purified fractions/isolated compounds series
Method: The Bernfeld’s procedure was used to investigate in-vitro amylase inhibition. […] Ten minutes after incubation period, […] of 1% starch solution were applied to initiate the reaction and then incubated for 30 minutes at 37 °C. Then 20 μl of 1 M HCl and 75 μl of iodine solution were added to the 96 well plate, the absorbance of the solution was measured at 580 nm and inhibitory response of the -amylase enzyme was calculated using the following formula. Inhibition%=100control-test/control
as §1

DPPH antioxidant assay = type: biochemical; conditions: for DPPH Percent Scavenging / Percent Inhibition (mean ± SEM): semi-purified fractions/isolated compounds series
Method: For DPPH stock arrangement, […] dissolve in 100 ml of methanol and maintain at 20 °C for supplementary action. After this, 1000 micro litter was the standard absorbance set at 517 nm as utilized a control and afterward spread through aluminum foil for keeping in dark area for 1 day for the formation of radicals. […] The 2 ml solution of the examples were blended in with 2 ml of 2, 2-[…]-1-picryl-hydrazyl radical arrangement and saved for 15 m in obscurity zone. Following equation was utilized for the assurance of % DPPH restraint. %inhibition=A-B/A×100
A for absorbance of control and B are denoted for the absorbance of sample.
as §1

[1] = system: alloxan-induced diabetic albino mice; experiment: In-vivo anti-diabetic study in alloxan-induced diabetic mice; conditions: for Decrease in Blood Glucose: 0 day to 15th day
Method: The diabetes was induced in mice by giving alloxan i.p. as per the standard protocols. A single dose of alloxan (150 mg/kg) was given to mice and were kept on fasting for next 16 hours to induce diabetes. […] The animals with random blood glucose level of more than 200 mg/dl were selected for further studies. The animals with elevated blood glucose levels were divided into six groups having five albino mice in each group. Group I was given normal saline and was negative control. Group II was given Tween 80. Group III was the positive control and was given glibenclamide. The remaining groups were given different doses of the compounds. […]

albino mice = experiment: Oral glucose tolerance test (OGTT); type: in vivo; conditions: for OGTT 0 minutes / OGTT 30 minutes / OGTT 60 minutes / OGTT 120 minutes: oral; for OGTT 0 minutes: 0 minutes after glucose; for OGTT 30 minutes: 30 minutes after glucose; for OGTT 60 minutes: 60 minutes after glucose; for OGTT 120 minutes: 120 minutes after glucose
Method: In this experiment, the animals treated with control and treated groups were fasted overnight. To the albino mice, […] of glucose was administered against the standard glibenclamide. After the oral administration of glucose, the level of glucose in blood was checked at time intervals of 0, 30, 60 and 120 minutes for assessment of the effect of exogenously administered glucose-D on the treated albino mice. After the experiment, the OGTT was carried out for 5 days.

[2] = ABTS free radicals scavenging assay; type: biochemical
Method: The ABTS analysis of plant’s samples was performed by standard systems. […] After amassing of the two solutions, they were saved in a hatchery at 30 °C for 15 m. The absorbance of the subsequent solution was estimated at 745 nm with photo-spectrometer again. Various weakening of ascorbic corrosive was then set up as certain controls as per a similar technique. The ABTS free extreme screening was examined by the accompanying recipe. Formula: %scavengingactivity=A-B/AX100 A used for the control while B represents sample absorbance.

[3] = H2O2 free radicals scavenging assay; type: biochemical
Method: The hydrogen peroxide antioxidant activity of test samples was evaluated by using protocol described. […] It was […] 0.6 mL hydrogen peroxide solution was applied to it. The absorbance of each plant sample was measured at 230 nm against the blank after 10 minutes. […] Hydrogenperoxidescavengingactivity=1-[…]×100 […]

[4] = dose 31.25 μg/kg, diabetic mice
[5] = dose 0.5 (μg/kg), diabetic mice

α-glucosidase, sequence (P53341 whole entry): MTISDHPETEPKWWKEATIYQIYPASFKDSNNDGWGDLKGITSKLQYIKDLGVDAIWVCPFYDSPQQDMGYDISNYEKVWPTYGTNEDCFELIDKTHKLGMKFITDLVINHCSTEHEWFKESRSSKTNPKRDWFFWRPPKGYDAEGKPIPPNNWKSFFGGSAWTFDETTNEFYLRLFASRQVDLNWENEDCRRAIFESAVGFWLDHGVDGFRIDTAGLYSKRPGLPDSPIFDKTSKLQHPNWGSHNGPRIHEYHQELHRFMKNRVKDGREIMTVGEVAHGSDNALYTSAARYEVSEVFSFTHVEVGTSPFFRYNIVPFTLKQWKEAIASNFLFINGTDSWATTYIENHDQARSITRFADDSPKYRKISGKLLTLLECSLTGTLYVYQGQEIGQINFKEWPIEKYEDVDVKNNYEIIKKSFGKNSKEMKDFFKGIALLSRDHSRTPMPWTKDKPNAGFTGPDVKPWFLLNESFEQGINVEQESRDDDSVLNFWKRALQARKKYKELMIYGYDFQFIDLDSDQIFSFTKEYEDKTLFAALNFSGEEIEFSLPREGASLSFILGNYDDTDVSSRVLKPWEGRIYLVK

Structure (SMILES)	Alpha amylase Percent Inhibition (mean ± SEM) (α-amylase; 250 μg/ml)	Alpha amylase Percent Inhibition (mean ± SEM) (α-amylase; 500 μg/ml)	Alpha amylase Percent Inhibition (mean ± SEM) (α-amylase; 1000 μg/ml)	DPPH Percent Scavenging / Percent Inhibition (mean ± SEM) (DPPH antioxidant assay; 250 μg/ml) [%]	DPPH Percent Scavenging / Percent Inhibition (mean ± SEM) (DPPH antioxidant assay; 500 μg/ml) [%]	DPPH Percent Scavenging / Percent Inhibition (mean ± SEM) (DPPH antioxidant assay; 1000 μg/ml) [%]	Decrease in Blood Glucose ([1]; dose 31.25 μg/kg) [mg/dL]	Blood Glucose Level 0 day [1, 4] [mg/dL]	Blood Glucose Level 4th day [1, 4] [mg/dL]	Blood Glucose Level 7th day [1, 4] [mg/dL]	Blood Glucose Level 10th day [1, 4] [mg/dL]	Blood Glucose Level 15th day [1, 4] [mg/dL]	Decrease in Blood Glucose ([1]; dose 250 μg/kg) [mg/dL]	Blood Glucose Level 0 day ([1]; dose 250 μg/kg, diabetic mice) [mg/dL]	Blood Glucose Level 4th day ([1]; dose 250 μg/kg, diabetic mice) [mg/dL]	Blood Glucose Level 7th day ([1]; dose 250 μg/kg, diabetic mice) [mg/dL]	OGTT 0 minutes (albino mice) [mg/dL]	OGTT 30 minutes (albino mice) [mg/dL]	OGTT 60 minutes (albino mice) [mg/dL]	OGTT 120 minutes (albino mice) [mg/dL]	other results
C[C@H]1O[C@H](O[C@H]2[C@H](O)[C@@H](O)[C@@H](O[C@H]3[C@H](O)[C@@H](O)C(O)O[C@@H]3CO)O[C@@H]2CO)[C@H](O)[C@@H](O)[C@@H]1N[C@H]1C=C(CO)[C@@H](O)[C@H](O)[C@H]1O (stereo partly shown) [Acarbose]	77.08 ± 1.04%	82.28 ± 1.94%	87.49 ± 0.60%																		Alpha glucosidase Percent Inhibition (mean ± SEM) (α-glucosidase): 89.50 ± 1.00% and 83.00 ± 0.00% and 77.50 ± 0.57% and 73.53 ± 0.55% and 67.63 ± 0.33%; Percent Inhibition (mean ± SEM) (α-glucosidase): 75.50 ± 1.00% and 70.00 ± 0.00% and 64.50 ± 0.57% and 56.53 ± 0.55% and 51.63 ± 0.33%; Percent Inhibition (mean ± SEM) (α-amylase; 250 μg/ml): 70.08 ± 1.04%; Percent Inhibition (mean ± SEM) (α-amylase; 500 μg/ml): 76.28 ± 1.94%; Percent Inhibition (mean ± SEM) (α-amylase; 1000 μg/ml): 87.49 ± 0.60%
COc1cc(/C=C/CO)ccc1O [Comp 1, (E)-4-(3-hydroxyprop-1-en-1-yl)-2-methoxyphenol]	74.90 ± 0.60^ns %	79.45 ± 0.90^ns %	85.23 ± 0.22^ns %	80.48 ± 0.25	85.43 ± 1.39	89.24 ± 0.79	36	415	407	398	381	379	205	420	394	345	165.6	194.6	211.4	160.1	Blood Glucose Level 10th day ([1]; dose 250 μg/kg, diabetic mice): 217 mg/dL; Blood Glucose Level 15th day ([1]; dose 250 μg/kg, diabetic mice): 215 mg/dL; Decrease in Blood Glucose ([1]; dose 500 μg/kg): 119 mg/dL; Blood Glucose Level 0 day ([1]; dose 500 μg/kg, diabetic mice): 411 mg/dL; Blood Glucose Level 4th day ([1]; dose 500 μg/kg, diabetic mice): 387 mg/dL; Blood Glucose Level 7th day ([1]; dose 500 μg/kg, diabetic mice): 371 mg/dL; Blood Glucose Level 10th day ([1]; dose 500 μg/kg, diabetic mice): 311 mg/dL; Blood Glucose Level 15th day ([1]; dose 500 μg/kg, diabetic mice): 292 mg/dL; blood glucose (albino mice; after 120 minutes): 160 mg/dL
O=C1O[C@H]([C@@H](O)CO)C(O)=C1O [Ascorbic acid]				83.33 ± 0.88	87.84 ± 0.26	92.55 ± 0.35															ABTS assay IC50 [2]: < 0.1 µg/mL; ABTS assay Percent Inhibition (mean ± SEM) ([2]; 250 μg/ml): 81.00 ± 1.06%; ABTS assay Percent Inhibition (mean ± SEM) ([2]; 500 μg/ml): 86.66 ± 0.66%; ABTS assay Percent Inhibition (mean ± SEM) ([2]; 1000 μg/ml): 87.83 ± 0.29%; DPPH assay Percent Inhibition (mean ± SEM) (DPPH antioxidant assay; 250 μg/ml, crude extract/solvent fractions series): 81.33 ± 0.88%; DPPH assay Percent Inhibition (mean ± SEM) (DPPH antioxidant assay; 500 μg/ml, crude extract/solvent fractions series): 87.84 ± 0.26%; DPPH assay Percent Inhibition (mean ± SEM) (DPPH antioxidant assay; 1000 μg/ml, crude extract/solvent fractions series): 92.55 ± 0.35%; DPPH assay IC50 (DPPH antioxidant assay; crude extract/solvent fractions series): < 0.1 µg/mL; H2O2 assay IC50 [3]: 12.63 µg/mL; H2O2 assay Percent Inhibition (mean ± SEM) ([3]; 250 μg/ml): 71.56 ± 0.49%; H2O2 assay Percent Inhibition (mean ± SEM) ([3]; 500 μg/ml): 74.03 ± 0.64%; H2O2 assay Percent Inhibition (mean ± SEM) ([3]; 1000 μg/ml): 82.43 ± 0.52%
C=CCc1cc2c(c(OC)c1OC)OCO2 [Comp 2, 6-allyl-4,5-dimethoxybenzo[d][1,3]dioxole]	68.33 ± 0.49 %	74.33 ± 1.20 %	81.61 ± 1.70 %	78.36 ± 0.84	82.35 ± 0.23	87.62 ± 0.58	33	451	447	430	424	418	112	467	462	444	163.5	189.4	214.6	151.6	Change in body weight [1, 4]: −6.6 gm; Blood Glucose Level 10th day ([1]; dose 250 μg/kg, diabetic mice): 408 mg/dL; Blood Glucose Level 15th day ([1]; dose 250 μg/kg, diabetic mice): 355 mg/dL; Decrease in Blood Glucose ([1]; dose 500 μg/kg): 201 mg/dL; Blood Glucose Level 0 day ([1]; dose 500 μg/kg, diabetic mice): 457 mg/dL; Blood Glucose Level 4th day ([1]; dose 500 μg/kg, diabetic mice): 403 mg/dL; Blood Glucose Level 7th day ([1]; dose 500 μg/kg, diabetic mice): 362 mg/dL; Blood Glucose Level 10th day ([1]; dose 500 μg/kg, diabetic mice): 304 mg/dL; Blood Glucose Level 15th day ([1]; dose 500 μg/kg, diabetic mice): 256 mg/dL
COc1ccc(Cl)cc1C(=O)NCCc1ccc(S(=O)(=O)NC(=O)NC2CCCCC2)cc1 [Glibenclamide, reference compound]																	151.3	176.5	214.1	140.7	Decrease in Blood Glucose ([1]; dose 0.5 (μg/kg)): 274 mg/dL; Blood Glucose Level 0 day [1, 5]: 472 mg/dL; Blood Glucose Level 4th day [1, 5]: 302 mg/dL; Blood Glucose Level 7th day [1, 5]: 256 mg/dL; Blood Glucose Level 10th day [1, 5]: 211 mg/dL; Blood Glucose Level 15th day [1, 5]: 198 mg/dL
